Patent US9725459B2, “3-oxo-tetrahydro-furo[3,2-B]pyrrol-4(5H)-yl) derivatives I” (GRÜNENTHAL GMBH, priority 2014, dated 2017)

How the values were obtained:
Type in all cases: biochemical
[1] = biological target: human cathepsin L (CatL) (Homo sapiens (Human), UniProt P07711); test: CatL functional enzyme assay; details: read-out: hCatL, inhibition [%] at 31.6 μM
Experimental: (§1) Reference and test compounds were assayed for inhibitory potency (IC50) against human cathepsins using the following assay setups:
(§2) Recombinant human cathepsins (CatS, CatK, CatL) were purchased from a Enzo Life Sciences. All assays were carried out in 96-well format using a buffer of 50 mM KH2PO4, 50 mM NaCl, 2 mM EDTA, 0.5 mM DTT and 1% Triton-X-100, pH 6.5 for Cathepsin S and a buffer of 50 mM NaOAc, 10 mM EDTA, 1 mM DTT and 0.01% Triton-X-100, pH 5.5 for CatK/L/B. For CatS, the enzyme (0.0007 mU/well) was incubated with fluorogeninc substrate (Z-VVR-AMC, 5 μM) at RT for 10 min. For CatK the enzyme (0.00175 mU/well) was incubated with fluorogeninc substrate (Z-FR-AMC, 40 μM) at RT for 10 min. For CatL, the enzyme (0.000874 mU/well) was incubated with fluorogeninc substrate (Z-VVR-AMC, 40 μM) at RT for 10 min. Flourogenic substrate turnover was detected using a microplate reader (Synergy™ H4, BioTek). Ki values were calculated using the Cheng Prusoff equation (Cheng & Prosoff 1973).

[2] = biological target: human cathepsin S (CatS) (Homo sapiens (Human), UniProt P25774); test: CatS functional enzyme assay; details: for Selectivity Ki(hCatS)/Ki(hCatK): ratio Ki(hCatS)/Ki(hCatK); for Ki: recombinant human CatS, substrate Z-VVR-AMC 5 μM, pH 6.5, Ki by Cheng Prusoff equation, read-out: hCatS, Ki; for inhibition at 10 µM: read-out: hCatS, inhibition [%] at 10 μM
human cathepsin S (CatS), sequence (P25774 115-331): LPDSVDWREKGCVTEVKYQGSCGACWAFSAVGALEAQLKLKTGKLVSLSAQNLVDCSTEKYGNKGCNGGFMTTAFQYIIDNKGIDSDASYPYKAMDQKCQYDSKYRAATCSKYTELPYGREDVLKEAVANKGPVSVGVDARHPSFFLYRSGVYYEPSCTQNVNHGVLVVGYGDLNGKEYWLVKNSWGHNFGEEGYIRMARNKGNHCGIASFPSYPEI
Experimental: as §2, with “Reference and test compounds were assayed for inhibitory potency (IC50) against human cathepsins using the following assay setups: Recombinant” for “Recombinant”, “All assays were carried out in 96-well format using a buffer of 50 mM KH2PO4, 50 mM NaCl, 2 mM EDTA, 0.5 mM DTT and 1% Triton-X-100, pH 6.5 for Cathepsin S and a buffer of 50 mM NaOAc, 10 mM EDTA, 1 mM DTT and 0.01% Triton-X-100, pH 5.5 for CatK/L/B.” left out

[3] = biological target: human cathepsin K (CatK) (Homo sapiens (Human), UniProt P43235); test: CatK functional enzyme assay; details: for Ki: recombinant human CatK, substrate Z-FR-AMC 40 μM, pH 5.5, Ki by Cheng Prusoff equation, read-out: hCatK, Ki
human cathepsin K (CatK), sequence (P43235 115-329): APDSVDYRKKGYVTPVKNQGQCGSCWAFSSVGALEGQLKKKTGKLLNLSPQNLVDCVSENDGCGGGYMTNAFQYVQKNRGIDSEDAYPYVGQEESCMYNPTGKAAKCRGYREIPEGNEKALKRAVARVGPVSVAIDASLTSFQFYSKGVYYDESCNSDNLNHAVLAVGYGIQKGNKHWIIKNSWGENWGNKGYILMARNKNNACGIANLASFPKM
Experimental: as §1, §2

human cathepsin L (CatL), sequence (P07711 114-333): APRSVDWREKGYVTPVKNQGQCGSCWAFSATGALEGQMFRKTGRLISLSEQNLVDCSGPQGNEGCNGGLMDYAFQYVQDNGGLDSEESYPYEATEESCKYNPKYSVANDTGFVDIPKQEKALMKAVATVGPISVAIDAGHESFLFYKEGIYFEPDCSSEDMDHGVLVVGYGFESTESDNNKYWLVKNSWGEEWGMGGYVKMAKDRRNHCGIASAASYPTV

| Structure (SMILES) | inhibition at 31.6 µM [1] [%] | Selectivity Ki(hCatS)/Ki(hCatK) [2] | Ki [2] [nM] | Ki [3] [nM] | inhibition at 10 µM [2] [%] | inhibition at 10 µM ([3]; read-out: hCatK, inhibition [%] at 10 μM) [%] |
| --- | --- | --- | --- | --- | --- | --- |
| O=C(N[C@H](C(=O)N1C[C@H](Cl)[C@H]2OCC(=O)[C@H]21)C1CCCCC1)c1ccc(-c2cccnn2)o1 [Example 20, N-((S)-2-((3aS,6S,6aS)-6-chloro-3-oxotetrahydro-2H-furo[3,2-b]pyrrol-4(5H)-yl)-1-cyclohexyl-2-oxoethyl)-5-(pyridazin-3-yl)furan-2-carboxamide] | 16 | 3.2 | 727 | 225 |  |  |
| O=C(N[C@H](C(=O)N1C[C@H](Cl)[C@H]2OCC(=O)[C@H]21)C1CCCCC1)c1sc(-c2cccnc2)nc1C(F)(F)F [Example 23, N-((S)-2-((3aS,6S,6aS)-6-chloro-3-oxotetrahydro-2H-furo[3,2-b]pyrrol-4(5H)-yl)-1-cyclohexyl-2-oxoethyl)-2-(pyridin-3-yl)-4-(trifluoromethyl)thiazole-5-carboxamide] | 0 |  |  |  | 60 | 52 |
| O=C(N[C@H](C(=O)N1C[C@H](Cl)[C@H]2OCC(=O)[C@H]21)C1CCCCC1)c1ccc(-c2cnccn2)o1 [Example 25, N-((S)-2-((3aS,6S,6aS)-6-chloro-3-oxotetrahydro-2H-furo[3,2-b]pyrrol-4(5H)-yl)-1-cyclohexyl-2-oxoethyl)-5-(pyrazin-2-yl)furan-2-carboxamide] | 20 | 5.4 | 833 | 153 |  |  |

Continued, values first:

| inhibition at 31.6 µM [1] [%] | Selectivity Ki(hCatS)/Ki(hCatK) [2] | Ki [2] [nM] | Ki [3] [nM] | inhibition at 10 µM [2] [%] | inhibition at 10 µM ([3]; read-out: hCatK, inhibition [%] at 10 μM) [%] | Structure (SMILES) |
| --- | --- | --- | --- | --- | --- | --- |
| 9 | 21.7 | 347 | 16 |  |  | O=C(N[C@H](C(=O)N1C[C@H](Cl)[C@H]2OCC(=O)[C@H]21)C1CCCCC1)c1ccc(-c2ccc(Cl)nc2)s1 [Example 17, N-((S)-2-((3aS,6S,6aS)-6-chloro-3-oxotetrahydro-2H-furo[3,2-b]pyrrol-4(5H)-yl)-1-cyclohexyl-2-oxoethyl)-5-(6-chloropyridin-3-yl)thiophene-2-carboxamide] |
| 15 | 1.2 | 37 | 31 |  |  | O=C(N[C@H](C(=O)N1C[C@H](Cl)[C@H]2OCC(=O)[C@H]21)C1CCCCC1)c1ncc(-c2ccnnc2)s1 [Example 18, N-((S)-2-((3aS,6S,6aS)-6-chloro-3-oxotetrahydro-2H-furo[3,2-b]pyrrol-4(5H)-yl)-1-cyclohexyl-2-oxoethyl)-5-(pyridazin-4-yl)thiazole-2-carboxamide] |
| 12 | 0.8 | 74 | 93 |  |  | O=C(N[C@H](C(=O)N1C[C@H](Cl)[C@H]2OCC(=O)[C@H]21)C1CCCCC1)c1ccc(-c2ccnnc2)o1 [Example 19, N-((S)-2-((3aS,6S,6aS)-6-chloro-3-oxotetrahydro-2H-furo[3,2-b]pyrrol-4(5H)-yl)-1-cyclohexyl-2-oxoethyl)-5-(pyridazin-4-yl)furan-2-carboxamide] |
| 17 |  |  | 37 | 73 |  | Cc1nc(-c2cnccn2)sc1C(=O)N[C@H](C(=O)N1C[C@H](Cl)[C@H]2OCC(=O)[C@H]21)C1CCCCC1 [Example 22, N-((S)-2-((3aS,6S,6aS)-6-chloro-3-oxotetrahydro-2H-furo[3,2-b]pyrrol-4(5H)-yl)-1-cyclohexyl-2-oxoethyl)-4-methyl-2-(pyrazin-2-yl)thiazole-5-carboxamide] |
| 10 | 2.8 | 61 | 22 |  |  | O=C(N[C@H](C(=O)N1C[C@H](Cl)[C@H]2OCC(=O)[C@H]21)C1CCCCC1)c1ncc(-c2cncnc2)s1 [Example 24, N-((S)-2-((3aS,6S,6aS)-6-chloro-3-oxotetrahydro-2H-furo[3,2-b]pyrrol-4(5H)-yl)-1-cyclohexyl-2-oxoethyl)-5-(pyrimidin-5-yl)thiazole-2-carboxamide] |
